Reference: the supplement of paper PMC7017272
± gives the standard deviation of the averaged measurements.

Experiments:
UT-SCC-73 [1] = experiment: relative IC50 (midpoint of the fitted curve; maximal inhibition may be below 50%); higher = less potent; conditions: treatment time: 3 days
How it was run: (§1)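 Viability of HPV-negative HNSCC cell lines was measured by CellTiter-Glo 2.0 luminescence. Cells were seeded at 500 cells/well in 384-well plates on plastic, on Matrigel- or Myogel-coated wells (500 µg/mL), or embedded in Matrigel or Myogel plus rat collagen I, then given compounds at five 10-fold concentrations for 3 days, with signals normalised to vehicle (0.1% DMSO) and cell-killing control wells. Fitting of percent-inhibition dose–response curves in the FIMM pipeline yielded IC50, maximal inhibition and drug sensitivity score.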

UT-SCC-40 [2] = experiment: as above; conditions: culture condition: plastic 2D (no matrix); treatment time: 3 days
How it was run: as §1

UT-SCC-14 [3] = experiment: as above; conditions: treatment time: 3 days
How it was run: as §1

UT-SCC-24B [4] = experiment: as above; conditions: treatment time: 3 days
How it was run: as §1

UT-SCC-42B [5] = experiment: as above; conditions: culture condition: on top of Myogel; treatment time: 3 days
How it was run: as §1

UT-SCC-44 [6] = experiment: as above; conditions: treatment time: 3 days
How it was run: as §1

UT-SCC-73 [7] = experiment: maximal % inhibition of viability relative to DMSO; higher = stronger effect; conditions: treatment time: 3 days
Procedure: (§2)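 HNSCC cell lines (500 cells/well, 384-well) were cultured on plastic, on top of (2D) or embedded (3D) in Matrigel or human leiomyoma matrix Myogel (500 ug/mL; Myogel 3D mixed with rat collagen I). Cells were treated for 3 days with 5 ten-fold concentrations of each drug, and viability was read by CellTiter-Glo. Viability was normalised to DMSO and benzethonium chloride controls and fitted with the FIMM DSRT pipeline to give IC50 (nM), maximal % inhibition and DSS. Suffixes _1/_2/_3 are replicates. Only inhibition-mode (IC50) fits are kept.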

UT-SCC-40 [8] = experiment: as above; conditions: treatment time: 3 days
Procedure: as §2

UT-SCC-8 = experiment: as above; conditions: treatment time: 3 days
Procedure: as §2

UT-SCC-28 = experiment: as above; conditions: treatment time: 3 days
Procedure: as §2

UT-SCC-42A = experiment: as above; conditions: treatment time: 3 days
Procedure: as §2

UT-SCC-14 [9] = experiment: as above; conditions: treatment time: 3 days
Procedure: as §2

UT-SCC-24B [10] = experiment: as above; conditions: treatment time: 3 days
Procedure: as §2

UT-SCC-42B [11] = experiment: as above; conditions: treatment time: 3 days
Procedure: as §2

UT-SCC-106A = experiment: as above; conditions: treatment time: 3 days
Procedure: as §2

UT-SCC-81 = experiment: as above; conditions: treatment time: 3 days
Procedure: as §2

UT-SCC-44 [12] = experiment: as above; conditions: treatment time: 3 days
Procedure: as §2

UT-SCC-24A = experiment: drug sensitivity score (DSS); higher = more sensitive; conditions: treatment time: 3 days
Procedure: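 HNSCC cell lines (500 cells/well, 384-well) were cultured on plastic, on top of (2D) or embedded (3D) in Matrigel or human leiomyoma matrix Myogel (500 ug/mL; Myogel 3D mixed with rat collagen I). Cells were treated for 3 days with 5 ten-fold concentrations of each drug, and viability was read by CellTiter-Glo. Suffixes _1/_2/_3 on drug names are replicates.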

[13] = culture condition: embedded in Myogel + collagen I
[14] = culture condition: on top of Myogel
[15] = culture condition: plastic 2D (no matrix)
[16] = culture condition: embedded in Matrigel
[17] = culture condition: on top of Matrigel

- relative IC50 (UT-SCC-73 [1]; [13]): 26.3 nM
- relative IC50 (UT-SCC-73 [1]; [14]): 12 nM
- relative IC50 (UT-SCC-73 [1]; [15]): 31.8 nM
- relative IC50 (UT-SCC-40 [2]): > 98.9 nM
- relative IC50 (UT-SCC-14 [3]; [16]): 0.687 nM
- relative IC50 (UT-SCC-14 [3]; [13]): 0.9 nM
- relative IC50 (UT-SCC-14 [3]; [17]): 1.24 nM
- relative IC50 (UT-SCC-14 [3]; [14]): 1.06 nM
- relative IC50 (UT-SCC-24B [4]; [16]): 0.965 nM
- relative IC50 (UT-SCC-24B [4]; [14]): 2.6 nM
- relative IC50 (UT-SCC-24B [4]; [15]): 2.95 nM
- relative IC50 (UT-SCC-42B [5]): > 98.9 nM
- relative IC50 (UT-SCC-44 [6]; [13]): 2.41 nM
- relative IC50 (UT-SCC-44 [6]; [17]): 1.79 nM
- relative IC50 (UT-SCC-44 [6]; [15]): 1.88 nM
SMILES: CO[C@H]1C[C@@H]2CC[C@@H](C)[C@@](O)(O2)C(=O)C(=O)N2CCCC[C@H]2C(=O)O[C@H]([C@H](C)C[C@@H]2CC[C@@H](O)[C@H](OC)C2)CC(=O)[C@H](C)/C=C(\C)[C@@H](O)[C@@H](OC)C(=O)[C@H](C)C[C@H](C)/C=C/C=C/C=C/1C [Sirolimus]
- maximal % inhibition of viability (UT-SCC-73 [7]; [16]): 84.6 ± 1.5%
- maximal % inhibition of viability (UT-SCC-73 [7]; [13]): 78.8 ± 4.7%
- maximal % inhibition of viability (UT-SCC-73 [7]; [17]): 83.3 ± 2.9%
- maximal % inhibition of viability (UT-SCC-73 [7]; [14]): 80.27 ± 0.76%
- maximal % inhibition of viability (UT-SCC-73 [7]; [15]): 79.8 ± 1.5%
- maximal % inhibition of viability (UT-SCC-40 [8]; [16]): 91.7 ± 5%
- maximal % inhibition of viability (UT-SCC-40 [8]; [13]): 92 ± 2%
- maximal % inhibition of viability (UT-SCC-40 [8]; [17]): 86.8 ± 0.91%
- maximal % inhibition of viability (UT-SCC-40 [8]; [14]): 75.6 ± 0.97%
- maximal % inhibition of viability (UT-SCC-40 [8]; [15]): 79.1 ± 2.9%
- maximal % inhibition of viability (UT-SCC-8; [16]): 96.37 ± 0.95%
- maximal % inhibition of viability (UT-SCC-8; [13]): 94.2 ± 1.6%
- maximal % inhibition of viability (UT-SCC-8; [17]): 95.77 ± 0.31%
- maximal % inhibition of viability (UT-SCC-8; [14]): 94.7 ± 0.35%
- maximal % inhibition of viability (UT-SCC-8; [15]): 95.07 ± 0.45%
- maximal % inhibition of viability (UT-SCC-28; [16]): 35 ± 13%
- maximal % inhibition of viability (UT-SCC-28; [13]): 57.3 ± 1.4%
- maximal % inhibition of viability (UT-SCC-28; [17]): 43.7 ± 4.2%
- maximal % inhibition of viability (UT-SCC-28; [15]): 34.8 ± 4.6%
- maximal % inhibition of viability (UT-SCC-42A; [16]): 66.8 ± 8.8%
- maximal % inhibition of viability (UT-SCC-42A; [13]): 52.5 ± 2.1%
- maximal % inhibition of viability (UT-SCC-42A; [17]): 64.7 ± 1.1%
- maximal % inhibition of viability (UT-SCC-42A; [14]): 61.33 ± 0.42%
- maximal % inhibition of viability (UT-SCC-42A; [15]): 55.5 ± 0.36%
- maximal % inhibition of viability (UT-SCC-14 [9]; [16]): 73.1 ± 6.3%
- maximal % inhibition of viability (UT-SCC-14 [9]; [13]): 60.2 ± 7.8%
- maximal % inhibition of viability (UT-SCC-14 [9]; [17]): 70.8 ± 8.7%
- maximal % inhibition of viability (UT-SCC-14 [9]; [14]): 66.2 ± 9%
- maximal % inhibition of viability (UT-SCC-14 [9]; [15]): 64.4 ± 6.4%
- maximal % inhibition of viability (UT-SCC-24B [10]; [16]): 93.17 ± 0.71%
- maximal % inhibition of viability (UT-SCC-24B [10]; [13]): 93.9 ± 1.8%
- maximal % inhibition of viability (UT-SCC-24B [10]; [17]): 91.5 ± 0.2%
- maximal % inhibition of viability (UT-SCC-24B [10]; [14]): 91.1 ± 2.1%
- maximal % inhibition of viability (UT-SCC-24B [10]; [15]): 90.4 ± 1.4%
- maximal % inhibition of viability (UT-SCC-42B [11]; [16]): 85 ± 3.7%
- maximal % inhibition of viability (UT-SCC-42B [11]; [17]): 76.5 ± 1.4%
- maximal % inhibition of viability (UT-SCC-42B [11]; [14]): 76.5 ± 1.6%
- maximal % inhibition of viability (UT-SCC-42B [11]; [15]): 74.1 ± 2.6%
- maximal % inhibition of viability (UT-SCC-106A; [16]): 53.1 ± 13%
- maximal % inhibition of viability (UT-SCC-106A; [13]): 35.2 ± 3%
- maximal % inhibition of viability (UT-SCC-106A; [17]): 52.9 ± 3.1%
- maximal % inhibition of viability (UT-SCC-106A; [14]): 41.1 ± 1.3%
- maximal % inhibition of viability (UT-SCC-106A; [15]): 57.3 ± 2.8%
- maximal % inhibition of viability (UT-SCC-81; [16]): 89.7 ± 3.3%
- maximal % inhibition of viability (UT-SCC-81; [13]): 80 ± 4.9%
- maximal % inhibition of viability (UT-SCC-81; [17]): 82.1 ± 1.4%
- maximal % inhibition of viability (UT-SCC-81; [14]): 77.3 ± 1.9%
- maximal % inhibition of viability (UT-SCC-81; [15]): 78.8 ± 3.2%
- maximal % inhibition of viability (UT-SCC-44 [12]; [16]): 48.7 ± 9.5%
- maximal % inhibition of viability (UT-SCC-44 [12]; [13]): 72.6 ± 1.9%
- maximal % inhibition of viability (UT-SCC-44 [12]; [17]): 61 ± 2.4%
- maximal % inhibition of viability (UT-SCC-44 [12]; [14]): 72.5 ± 1.7%
- maximal % inhibition of viability (UT-SCC-44 [12]; [15]): 72.3 ± 3.1%
- drug sensitivity score (UT-SCC-24A; [16]): 9 ± 4.9 DSS
- drug sensitivity score (UT-SCC-24A; [13]): 16.4 ± 1.2 DSS
- drug sensitivity score (UT-SCC-24A; [17]): 12.7 ± 3.7 DSS
- drug sensitivity score (UT-SCC-24A; [14]): 13.7 ± 1.2 DSS
- drug sensitivity score (UT-SCC-24A; [15]): 12.9 ± 2.5 DSS
